These are literature values, as cited in patent US4127526A, “Novel tetradecapeptides, intermediates therefor, and compositions and methods employing said tetradecapeptides” (priority 1977, dated 1978).

The conditions of data set [1]: injected directly into the brain of the rat.
The test system of data set [2] is brain opiate receptor sites.

Regarding “H-Tyr-Gly-Gly-Phe-Met-OH [methionine enkephalin]”, the “activity in bioassays for opiate activity” value in the data set on opiate activity is on record as “very active”. Moreover, in data set [1], the analgesic activity result is “weak analgesic agent of short duration”. Further, the “binding to partially purified brain opiate receptor sites” value in data set [2] is “binds stereo-specifically”.
